For this test, the target named is T1, GPR3 (Homo sapiens, UniProt P46089, INS231ASEIGTGFPFDPHYVEVLGERMHYVDVGPRDGTPVLFLHGNPTSSYVWRNIIPHVAPTHRCIAPDLIGMGKSDKPDLGYFFDDHVRFMDAFIEALGLEEVVLVIHDWGSALGFHWAKRNPERVKGIAFMEFIRPIPTWDEWPEFARETFQAFRTTDVGRKLIIDQNVFIEGTLPMGVVRPLTEVEMDHYREPFLNPVDREPLWRFPNELPIAGEPANIVALVEEYMDWLHQSPVPKLLFWGTPGVLIPPAEAARLAKSLPNCKAVDIGPGLNLLQEDNPDLIGSEIARWLSTLEISGGS).
T1 construct: ligated to the full-length C-terminus; expressed in transfected cells; some experiments transient
The test can be described thus: BRET-based conformational GPR3 biosensor (GPR3-HaloTag/Nluc) in HEK293A cells. Type of test: cell-based. To be noted: for EC50: HEK293A cells stably expressing the biosensor, read-out: EC50 at GPR3-HaloTag/Nluc. The text has this:
To develop a conformational GPR3 biosensor that can be used in a microtiter well plate format, we employed the intramolecular BRET design previously validated for several GPCRs. − The BRET donor NanoLuc was fused to the receptor’s full-length C-terminus and the self-labeling protein tag, HaloTag, was inserted into GPR3′s third intracellular loop between amino acids Arg231 and His232 (Figure a; sequence in Figure S1). […]
Plasmids and molecular cloning […]
Plasmids encoding the conformational biosensors α2AAR- and β2AR-HaloTag/Nluc9 and the Gs heterotrimer dissociation sensor10 were previously described. The expression plasmid encoding N-terminally HA-tagged GPR3 (cat. no.
#GPR003TN00) on a pcDNA3.1+ vector was obtained from the cDNA resource center (cdna.org). The Nluc and HaloTag in-serts were amplified with overhanging restriction sites from β2AAR- HaloTag/Nluc and ligated to the full-length C-terminus or inserted into icl3 of GPR3, respectively, to obtain the conformational biosensor GPR3-HaloTag/Nluc. Point mutants of GPR3-HaloTag/Nluc were generated using the GeneArt Site-directed Mutagenesis System (Thermo Fisher Scientific). All con-structs were verified by sequencing (Eurofins genomics). […]
serum albumin (BSA) were obtained from Sigma Aldrich (Merck KGaA). Dulbecco's Modified Eagle's Medium (DMEM), Dul- […]
Diphenyleneiodonium chloride (DPI) and AF64394 were purchased from Tocris (Bio -Techne). The TMB (3, 3', 5, 5' tetramethyl benzidine) substrate reagent set was […]
were obtained in a single kit from Promega (cat. no. N1662). D-luciferin-sodium and the S1PR1 agonist III were from Med-ChemExpress. The Rluc substrate coelenterazine 400a was from NanoLight Technology (cat. no. 340 -10). White -wall, white - bottomed 96 -well, black -wall, black bottomed and transparent 96 -well microtiter plates were from Brand.
HEK293A cells were used for transient transfection and grown in Dulbecco’s modified Eagle’s medium (DMEM) supplemented with 2 mM glutamine, 10 % fetal calf serum, streptomycin (0.1 mg/mL), and penicillin (100 U/mL) at 37 °C with 5 % CO2. For the generation of stable GPR3 -HaloTag/Nluc cells, HEK293A cells grown in T75 flasks were transfected at a confluence of 40 – […]
Absence of mycoplasma contamination was routinely
Transient transfection and plating
Resuspended cells (300,000 cells/mL) were transfected in suspension with a total of 1 μg DNA/mL suspension using PEI (1 mg/ml stock solution; 3 μL PEI solution per μg DNA). […]
Cells mixed with the transfection reagents were seeded onto poly-D-lysine–precoated, 96-well plates and grown for 48 h at 37 °C with 5 % CO2. Stable α2AAR-, β2AR- or GPR3-HaloTag/Nluc expressing cells were seeded 24 h before the experi-ment at a density of 800,000 cells/mL into white 96-well plates. To monitor changes in BRET in with conformational GPCR […]
experiment. White plates were used for BRET and luminescence measurements, black plates for FRET experiments and trans-parent plates for absorbance-based quantification of receptor surface expression levels.

SMILES strings stand for the structures.

T1 sequence (P46089 with tags, fused parts or gaps with the stated changes): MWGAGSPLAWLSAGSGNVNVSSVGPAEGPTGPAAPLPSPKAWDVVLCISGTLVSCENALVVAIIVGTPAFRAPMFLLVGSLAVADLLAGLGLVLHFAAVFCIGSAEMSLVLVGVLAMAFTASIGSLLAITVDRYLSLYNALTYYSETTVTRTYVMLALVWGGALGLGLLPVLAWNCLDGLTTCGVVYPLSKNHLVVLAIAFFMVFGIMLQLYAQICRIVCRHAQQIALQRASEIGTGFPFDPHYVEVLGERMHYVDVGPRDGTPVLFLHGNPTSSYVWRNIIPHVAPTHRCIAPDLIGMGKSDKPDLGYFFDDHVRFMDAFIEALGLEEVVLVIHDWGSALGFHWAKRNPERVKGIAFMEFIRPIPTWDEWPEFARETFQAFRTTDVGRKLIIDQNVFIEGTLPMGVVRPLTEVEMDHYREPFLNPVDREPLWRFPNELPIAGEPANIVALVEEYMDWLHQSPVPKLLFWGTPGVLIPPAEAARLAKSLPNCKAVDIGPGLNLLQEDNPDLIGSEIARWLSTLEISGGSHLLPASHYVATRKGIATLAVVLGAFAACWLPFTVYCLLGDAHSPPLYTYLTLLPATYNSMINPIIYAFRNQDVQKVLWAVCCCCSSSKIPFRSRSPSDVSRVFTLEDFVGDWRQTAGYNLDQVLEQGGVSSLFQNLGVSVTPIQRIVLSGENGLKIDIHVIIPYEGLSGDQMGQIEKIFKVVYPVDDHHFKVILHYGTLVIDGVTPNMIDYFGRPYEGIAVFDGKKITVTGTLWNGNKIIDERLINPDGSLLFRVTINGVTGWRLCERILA

For the molecule `N=c1n(Cc2ccccc2)c2ccccc2n1CC1CC1` [compound 33], the EC50 stood at 5 µM. The “effect of preincubation on OEA and oleamide potency in GPR3 conformation assay” value (30 µM preincubation) is recorded as “reduced potency of OEA, but not oleamide”. For `N=c1n(Cc2ccccc2)c2ccccc2n1CC(O)COc1ccc(Cl)cc1` (stereo not shown) [compound 52], the EC50 was 25 µM. Consider `Cc1ccc(NC(=O)CN2CCN(C(=O)CCc3ccc(Cl)cc3)CC2)cc1` [compound 115], for which the EC50 stood at 85 µM.

For the origin of these results see article PMC13195669, “GPR3 Ligands Discovered through Combined Virtual and Conformational Biosensor-Based Screening” (Journal of the American Chemical Society, 2026).
